Counter-ions that a name gives are not always drawn.
Tested on: dogs with advanced heart failure
Test: Dose escalation / bolus plus infusion study, hemodynamic and ventriculographic measures
Assay type: in vivo, dog
Conditions: for Effect on EF (LVEF) / Effect on ESV: dose dependent; for Hemodynamic and ventriculographic benefits after discontinuation: one hour after discontinuation of infusion
Experimental: Studies were performed in purpose-bred, healthy and conditioned mongrel dogs weighing between 20 and 30 kg. The study was approved by Henry Ford Health System Institutional Animal Care and Use Committee and conformed to the National Institute of Health “Guide and Care for Use of Laboratory Animals” and the “Position of the American Heart Association on Research Animal Use” (Position of the American Heart Association on Research Animal Use. Circulation 1985; 71; 49A-50A).
Chronic LV dysfunction and failure was produced by multiple sequential intracoronary embolizations with polystyrene Latex; coronary microembolizations were performed during cardiac catheterization under general anesthesia and sterile conditions (Sabbah H N, et al. Am J Physiol (1991) 260:H1379-84; Sabbah H N, et al. Circulation (1994) 89:2852-9; Sabbah H N, et al. Am J Cardiol 99:41 A-46A, (2007)). Anesthesia was induced using a combination of intravenous injections of oxymorphone hydrochloride (0.22 mg/kg) and diazepam (0.2-0.6 mg/kg). Plane of anesthesia was maintained throughout the study using 1% to 2% isoflurane. Left and right heart catheterizations were performed via a femoral arteriotomy and venotomy. Coronary microembolizations were discontinued when LV ejection fraction, determined angiographically, was about 25%. A period of 2 weeks was allowed after the last microembolization to ensure that infarctions produced by the last microembolizations have completely healed and heart failure was established before the study is undertaken.
Eight heart failure dogs described in Example 1 were used. Seven of 8 dogs underwent two studies, one with active drug GP-531 tartrate and one with vehicle (placebo) and 1 of 8 dogs underwent only one active drug GP-531 study. The order of active drug and placebo was randomized and performed about one week apart. In 6 of 8 dogs, after baseline hemodynamic, and ventriculographic measurements, vehicle was administered as a continuous intravenous infusion for one hour. At the end of one hour, the active drug GP-531 tartrate was administered in 3 escalating dose of continuous intravenous infusion with each dose maintained for one hour. At the end of the last drug dose, infusion was stopped and a washout period of one hour was instituted. The same infusion rates and times between doses were used when vehicle studies were performed. At the end of each hour, hemodynamic and angiographic measurements were made. Venous blood samples were obtained at baseline and at one hour after each dose. Blood samples (at least 10 mL) were centrifuged at 3000 rpm for 10 minutes and plasma withdrawn and placed in cryostorage tubes and stored upright at −20° C. for future use. In 2 of 8 dogs, active drug was administered as bolus followed by a constant infusion for 3 hours as noted below.
Active drug was used in dog groups as follows:
1. In 3 of 8 dogs, escalating doses of 30, 100 and 300 μg/kg/min GP-531 tartrate were used (Group I)
2. In another 3 of 8 dogs, escalating doses of 3, 10 and 30 μg/kg/min GP-531 tartrate were used (Group II).
3. In 1 of 8 dogs, active drug was administered as 700 μg/kg GP-531 tartrate bolus followed by a constant infusion of 10 μg/kg/min GP-531 tartrate for 3 hours.
4. In another 1 of 8 dogs, two active drug studies were performed. In one study, active drug was administered as 70 μg/kg bolus followed by a constant infusion of 1.0 μg/kg/min for 4 hours and in the second study, active drug was administered as 210 μg/kg bolus followed by a constant infusion of 3.0 μg/kg/min for 4 hours.
Study Primary End-Points were: (1) change in LV ejection fraction determined from ventriculography and (2) change in LV end-systolic and end-diastolic volume determined from ventriculography.
All hemodynamic measurements were made during left and right heart catheterizations in anesthetized dogs at each specified study time point. […]

[1] = 1 HF dog, 210 μg/kg bolus then 3.0 μg/kg/min for 4 h
[2] = 1 HF dog, 210 μg/kg bolus then 3.0 μg/kg/min, end of 4 h
[3] = 1 HF dog, 700 μg/kg bolus then constant infusion 10 m/kg/min (so in the source) for 3 h
[4] = 1 HF dog, 700 μg/kg bolus then constant infusion 10 m/kg/min (so in the source), end of 3 h
[5] = Group I HF dogs n=3, 1 h washout after 30/100/300 μg/kg/min
[6] = Group I HF dogs n=3, escalating 30, 100, 300 μg/kg/min, vs baseline
[7] = Group I HF dogs n=3, escalating 30, 100, 300 μg/kg/min, vs baseline, listed as GP-531 tartrate salt
[8] = Group II HF dogs n=3, 1 h washout after 3/10/30 μg/kg/min
[9] = Group II HF dogs n=3, escalating 3, 10, 30 μg/kg/min, not statistically significant vs baseline
[10] = Group II HF dogs n=3, escalating 3, 10, 30 μg/kg/min, vs baseline
[11] = Group I HF dogs n=3, iv 30 μg/kg/min, 1 h
[12] = Group I HF dogs n=3, iv 100 μg/kg/min, 1 h
[13] = Group I HF dogs n=3, iv 300 μg/kg/min, 1 h
[14] = Group II HF dogs n=3, iv 3 μg/kg/min, 1 h
[15] = Group II HF dogs n=3, iv 10 μg/kg/min, 1 h
[16] = Group II HF dogs n=3, iv 30 μg/kg/min, 1 h

## NC(=O)c1ncn(C2OC(CNCc3ccccc3)C(O)C2O)c1N (stereo not drawn) [GP-531 tartrate]
[1]
  Effect on CO: minimal or modest changes
  Effect on HR: modest reduction
  Effect on LVEDP: modest reduction
  Effect on SV: minimal or modest changes
  Effect on SVR: minimal or modest changes
  Effect on mAoP: modest reduction
[2]
  Effect on EDV: essentially no change
  Increase in EF: 44%
  Reduction in ESV: ~20%
[3]
  Effect on CO: minimal or modest changes
  Effect on HR: modest reduction
  Effect on LVEDP: substantial drop
  Effect on SV: minimal or modest changes
  Effect on SVR: minimal or modest changes
  Effect on mAoP: modest reduction
[4]
  Increase in EF: 30%
  Reduction in EDV: ~10%
  Reduction in ESV: 20%
[5]
  Cardiac output (CO): 1.72 ± 0.17 L/min
  Heart rate (HR): 85 ± 7 beats/min
  LV end-diastolic pressure (LVEDP): 13 ± 1 mmHg
  LV end-diastolic volume (EDV): 70 ± 5 mL
  LV end-systolic volume (ESV): 49 ± 4 mL
  Mean aortic pressure (mAoP): 73 ± 6 mmHg
  Stroke volume (SV): 20 ± 2 mL
  Systemic vascular resistance (SVR): 3445 ± 310 dynes-sec-cm^−5
[6]
  Effect on CO: significant increase
  Effect on EDV: modest and not statistically significant effect on reducing
  Effect on HR: no effect
  Effect on LVEDP: significantly decreased
  Effect on SV: significant increase
  Effect on SVR: decrease
  Effect on mAoP: no effect
  Effect on EF (LVEF): increased
  Effect on ESV: significantly decreased
[7]
  Effect on EF (LVEF): increase
  Effect on ESV: significant decrease
Group I HF dogs
  Hemodynamic and ventriculographic benefits after discontinuation: attenuated but in many instances remained significantly better than baseline values
[8]
  Cardiac output (CO): 1.50 ± 0.02 L/min
  Heart rate (HR): 80 ± 5 beats/min
  LV end-diastolic pressure (LVEDP): 12 ± 1 mmHg
  LV end-diastolic volume (EDV): 59 ± 4 mL
  LV end-systolic volume (ESV): 40 ± 2 mL
  Mean aortic pressure (mAoP): 66 ± 3 mmHg
  Stroke volume (SV): 19 ± 2 mL
  Systemic vascular resistance (SVR): 3511 ± 176 dynes-sec-cm^−5
[9]
  Effect on CO: modestly increased
  Effect on SV: modestly increased
  Effect on SVR: modestly decreased
[10]
  Effect on EDV: no effects
  Effect on HR: no effect
  Effect on LVEDP: significantly decreased
  Effect on mAoP: no effect
  Effect on EF (LVEF): increased
  Effect on ESV: significantly decreased
Group II HF dogs n=3, escalating 3, 10, 30 μg/kg/min, vs baseline, listed as GP-531 tartrate salt
  Effect on EF (LVEF): increase
Group II HF dogs
  Hemodynamic and ventriculographic benefits after discontinuation: attenuated but in many instances remained significantly better than baseline values
HF dogs, iv 3 to 300 μg/kg/min
  Adverse positive chronotropic effects: not associated with any adverse positive chronotropic effects
HF dogs, iv 3 to 300 μg/kg/min over at least one hour
  LV systolic function: can improve LV systolic function
Bolus injection 700 μg/kg followed by 3 hour constant infusion 10 μg/kg/min
  Effect on LVEF (FIG. 3): increase

## NC(=O)c1ncn(C2OC(CNCc3ccccc3)C(O)C2O)c1N [GP-531, 5-amino-1-β-D-(5-benzylamino-5-deoxy-1-β-D-ribofuranosyl)imidazole-4 carboxamide]
1 HF dog, 70 μg/kg bolus then 1.0 μg/kg/min for 4 h
  Effect on hemodynamic or ventriculographic measures of LV function: no effects
[11]
  Cardiac output (CO): 1.90 ± 0.19 L/min
  Heart rate (HR): 88 ± 9 beats/min
  LV end-diastolic pressure (LVEDP): 11 ± 1 mmHg
  LV end-diastolic volume (EDV): 69 ± 6 mL
  LV end-systolic volume (ESV): 47 ± 4 mL
  Mean aortic pressure (mAoP): 70 ± 2 mmHg
  Stroke volume (SV): 22 ± 2 mL
  Systemic vascular resistance (SVR): 2995 ± 213 dynes-sec-cm^−5
[12]
  Cardiac output (CO): 2.06 ± 0.28 L/min
  Heart rate (HR): 90 ± 9 beats/min
  LV end-diastolic pressure (LVEDP): 10 ± 1 mmHg
  LV end-diastolic volume (EDV): 68 ± 4 mL
  LV end-systolic volume (ESV): 45 ± 4 mL
  Mean aortic pressure (mAoP): 69 ± 2 mmHg
  Stroke volume (SV): 23 ± 1 mL
  Systemic vascular resistance (SVR): 2792 ± 360 dynes-sec-cm^−5
[13]
  Cardiac output (CO): 2.06 ± 0.22 L/min
  Heart rate (HR): 88 ± 6 beats/min
  LV end-diastolic pressure (LVEDP): 11 ± 1 mmHg
  LV end-diastolic volume (EDV): 68 ± 4 mL
  LV end-systolic volume (ESV): 44 ± 4 mL
  Mean aortic pressure (mAoP): 73 ± 3 mmHg
  Stroke volume (SV): 23 ± 1 mL
  Systemic vascular resistance (SVR): 2886 ± 67 dynes-sec-cm^−5
[14]
  Cardiac output (CO): 1.47 ± 0.09 L/min
  Heart rate (HR): 80 ± 2 beats/min
  LV end-diastolic pressure (LVEDP): 12 ± 1 mmHg
  LV end-diastolic volume (EDV): 62 ± 2 mL
  LV end-systolic volume (ESV): 43 ± 2 mL
  Mean aortic pressure (mAoP): 70 ± 3 mmHg
  Stroke volume (SV): 18 ± 1 mL
  Systemic vascular resistance (SVR): 3870 ± 366 dynes-sec-cm^−5
[15]
  Cardiac output (CO): 1.45 ± 0.06 L/min
  Heart rate (HR): 82 ± 6 beats/min
  LV end-diastolic pressure (LVEDP): 12 ± 1 mmHg
  LV end-diastolic volume (EDV): 58 ± 4 mL
  LV end-systolic volume (ESV): 39 ± 3 mL
  Mean aortic pressure (mAoP): 65 ± 2 mmHg
  Stroke volume (SV): 19 ± 1 mL
  Systemic vascular resistance (SVR): 3379 ± 26 dynes-sec-cm^−5
[16]
  Cardiac output (CO): 1.64 ± 0.06 L/min
  Heart rate (HR): 80 ± 3 beats/min
  LV end-diastolic pressure (LVEDP): 12 ± 2 mmHg
  LV end-diastolic volume (EDV): 57 ± 4 mL
  LV end-systolic volume (ESV): 36 ± 3 mL
  Mean aortic pressure (mAoP): 69 ± 3 mmHg
  Stroke volume (SV): 21 ± 2 mL
  Systemic vascular resistance (SVR): 3388 ± 235 dynes-sec-cm^−5
HF dogs, iv 3 to 300 μg/kg/min
  De-novo ventricular arrhythmias: without triggering de-novo ventricular arrhythmias
  Hypotension: without inducing hypotension

Reference: patent US9492468B2, “Methods and compositions for treatment of acute heart failure” (PERICOR THERAPEUTICS, INC., priority 2008, dated 2016)
